Experimental data reported in patent US6040149A, “Assay for identifying agents which act on the ceramide-activated protein kinase, kinase suppressor of ras, and methods of using said agents” (priority 1997, dated 2000).

Columns and labels:
[1] = molecular target: T1, KSR (Mus musculus, UniProt Q61097); experiment: KSR autophosphorylation after treatment of COS-7 cells expressing KSR; format: cell-based, mouse (KSR expressed in COS-7 cells)
T1 sequence (Q61097 1-873): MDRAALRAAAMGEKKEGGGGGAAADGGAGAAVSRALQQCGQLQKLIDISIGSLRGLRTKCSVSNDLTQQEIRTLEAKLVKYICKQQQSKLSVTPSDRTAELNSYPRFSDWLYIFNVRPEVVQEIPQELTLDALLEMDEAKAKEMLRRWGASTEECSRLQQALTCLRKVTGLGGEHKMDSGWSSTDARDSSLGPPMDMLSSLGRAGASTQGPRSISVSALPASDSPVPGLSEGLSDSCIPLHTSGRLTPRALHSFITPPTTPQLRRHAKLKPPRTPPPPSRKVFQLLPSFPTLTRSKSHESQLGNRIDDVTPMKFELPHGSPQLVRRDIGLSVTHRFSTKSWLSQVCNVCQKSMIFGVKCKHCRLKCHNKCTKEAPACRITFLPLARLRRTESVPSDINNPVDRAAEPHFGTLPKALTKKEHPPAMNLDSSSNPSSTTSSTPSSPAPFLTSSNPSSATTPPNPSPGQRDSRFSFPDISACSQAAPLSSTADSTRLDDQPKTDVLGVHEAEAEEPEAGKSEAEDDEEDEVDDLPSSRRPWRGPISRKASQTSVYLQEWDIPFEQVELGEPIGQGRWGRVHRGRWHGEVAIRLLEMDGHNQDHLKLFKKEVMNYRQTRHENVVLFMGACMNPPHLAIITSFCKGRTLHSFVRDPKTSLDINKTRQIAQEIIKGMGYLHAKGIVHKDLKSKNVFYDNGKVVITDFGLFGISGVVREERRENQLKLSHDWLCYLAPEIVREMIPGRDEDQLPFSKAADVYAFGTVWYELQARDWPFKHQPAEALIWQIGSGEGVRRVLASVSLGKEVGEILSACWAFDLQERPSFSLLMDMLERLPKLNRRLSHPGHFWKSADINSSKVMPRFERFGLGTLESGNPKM
Procedure: FIG. 23A--COS-7 cells were transfected as in FIG. 22A and placed in serum-free medium. After 4 hours, cells were stimulated for 10 min with the ceramide analog, C2-ceramide (Biomol), at the concentrations indicated. Cells were lysed with NP-40 lysis buffer, and Flag-tagged KSR (0.8 mg protein for each point) was immunoprecipitated and assayed for autophosphorylation activity as described in Experimental Procedures. The autoradiogram was exposed for 1 hour. KSR is expressed at similar levels in each sample as monitored by Western blot (data not shown). Data represent one of three similar experiments.
(§1) COS-7 cells expressing Flag-tagged KSR were stimulated with 10 nM TNFα for the times indicated and lysed with NP-40 buffer as in FIG. 2A. […] The autoradiogram was exposed for 1 hour. Data represent one of three similar experiments.
KSR was immunoprecipitated as above from 0.8 mg NP-40 lysate protein with 40 μl agarose-conjugated anti-Flag antibody at 4° C. for 4 hrs or overnight. […] The reaction was stopped by addition of Laemmli sample buffer. Samples were resolved by 7.5% sodium dodecyl sulfate-polyacrylamide gel electrophoresis (SDS-PAGE) and autoradiographed.

[2] = tested on: KSR/Raf-1 complex; experiment: Co-immunoprecipitation of KSR and Raf-1 from treated COS-7 cells; format: cell-based, mouse KSR (COS-7 cells)
Procedure: FIG. […] Cells were lysed with NP-40 buffer and subjected to 4 hr of immunoprecipitation with anti-Raf-1 antibody. Two controls, KSR and KSR with ceramide treatment, received protein A conjugated sepharose beads without anti-Raf-1 antibody. […] Data represent one of four similar experiments.
Cell lysates were subjected to immunoprecipitation with anti-Flag antibody. Immunoprecipitated samples were handled as in FIG. 24A except Western blot analysis was performed with anti-Raf-1 antibody. Data represent one of three similar experiments.
Anti-Raf-1 antibody conjugated beads were prepared by overnight incubation of 2 μl of anti-Raf-1 antibody (a kind gift of Dr. Debbie Morrison) with 5 mg of the protein A conjugated sepharose beads, followed by washing three times with NP-40 lysis buffer. […] Lysates (0.8 mg total protein) were then incubated for 4 hrs with anti-Raf-1 bound sepharose beads or anti-Flag conjugated agarose beads. The beads were washed vigorously 5 times, boiled in Laemmli sample buffer, and proteins were separated on 7.5% SDS-PAGE. After electrophoresis, the gel was transferred to PVDF membrane and probed with anti-Flag antibody or anti-Raf-1 antibody.

[3] = molecular target: T1, KSR; experiment: Phosphorylation and activation of recombinant Raf-1 by KSR immunoprecipitated from treated COS-7 cells; format: cell-based, mouse (KSR expressed in COS-7 cells); conditions: C2-ceramide 1 μM; TNFα 10 nM
Procedure: FIGS. 23B-23C--COS-7 cells expressing Flag-tagged KSR were stimulated with 1 μM C2-ceramide for 10 min and lysed with NP-40 buffer as in FIG. 23A. […] The autoradiogram was exposed for 1 hour. Data represent one of three experiments.
as §1
Immunoprecipitated KSR was incubated with reaction buffer A containing 0.5 mM ATP and a protein kinase inhibitor cocktail [20 μM PKC inhibitor peptide (UBI), 2 μM protein kinase A inhibitor peptide (UBI) and 20 μM R24571 (Sigma)] for 30 min at 22° C.

[4] = tested on: CAP kinase; experiment: Phosphorylation of Raf-1 peptides by CAP kinase; format: biochemical, bovine (brain)
[5] = molecular target: T1, KSR; experiment: KSR activity toward Raf-1 peptides in vitro; format: biochemical, mouse (KSR immunoprecipitated from COS-7 cells); design: Raf-1 peptides as substrate
Procedure: The wild type peptide contains eight potential phosphorylation sites (shown in bold). Substitution of alanines and glycines for serines and threonines generated one peptide (TTLP-peptide) containing only two potential phosphorylation sites (Thr^268,269) and another peptide (AALP-peptide) with no potential phosphorylation sites.
FIG. 28A--Flag-tagged KSR was immunoprecipitated from 0.2 mg COS-7 lysate, and assayed with TTLP- or AALP-peptides in the presence of 30 nM ceramide (Avanti) or diluent (DMSO). Background counts per minute (cpm) derived from samples incubated with the AALP-peptide which contains no phosphorylation sites were subtracted from all points. Background cpm always represented less than 25% of the untreated total.
FIG. 28B--Flag-tagged KSR immunoprecipitated from 0.2 mg COS-7 lysate was assayed with TTLP- or AALP-peptides in the presence of ceramide or diluent for 45 min as described in FIG. 7A.
FIG. 28C--Flag-tagged KSR was immunoprecipitated from 0.15 mg COS-7 lysate and assayed with TTLP- or AALP-peptides for 20 min in the presence of 30 nM of the indicated lipid second messengers as described in FIG. 28A (AA: arachidonic acid; LPA: lyso phosphatidic acid; PMA: phorbol 12-myristate 13-acetate; DAG: 1,2-diacylglycerol).
KSR-bound beads were incubated with reaction buffer B plus 10 mM MnCl2, 5 μM ATP and [γ-^32 P]ATP at 22° C. for the period of time indicated in the presence of 0.3 mM synthetic Raf-peptide or substrate peptides specific for other Ser/Thr protein kinases. […] (SEQ ID NO.3). Substitution of glycines and alanines for serines and threonines generated one peptide (termed TTLP-peptide) containing only two potential phosphorylation sites at Thr^268,269 (in bold), […] (SEQ ID NO. 24), and another peptide (termed AALP-peptide; SEQ ID No.6) with no potential phosphorylation sites, […] (SEQ ID No.25). The amino acid sequences of substrate peptides specific for other protein kinases (Joseph et al., 1993) are: […] (SEQ ID NO.26) (PKA); […] (SEQ ID NO.27) (S6 kinase); […] (SEQ ID NO.28)(CK II); […] (SEQ ID NO.29) (CaM kinase II); and […] (SEQ ID NO.30) (PKC). […] Substrate peptides for PKA and PKC were from Sigma (St. Louis, Mo.). The reaction was stopped by addition of a stop solution containing 0.5 M ATP in 90% formic acid. The beads were removed by centrifugation at 5000×g for 2 min and the supernatant was loaded on P81 Whatman filter paper. The filter was air dried and washed in 4 mM Na2 H2 P2 O7, 1 mM acetic acid for one hour. The filter was baked at 90° C. for 10 min and quantified by Cerenkov counting using a Beckman LS 5000TD scintillation counter. In some experiments, samples were separated by C18 reverse-phase chromatography on HPLC (Mathias et al., 1991) to verify the results of the filter assay. Virtually identical results were obtained with both methods.

Compound	concentration of maximal effect ([1]; C2-ceramide)	lowest effective concentration (KSR activity) ([1]; C2-ceramide)	fold induction at 40 µM ([1]; COS-7, 10 min, 40 μM C2-ceramide, read-out: maximal enhancement of KSR autophosphorylating activity)	co-immunoprecipitation of KSR with Raf-1 ([2]; 50 μM C2-ceramide, anti-Raf-1 precipitation)	co-immunoprecipitation of Raf-1 with KSR ([2]; C2-ceramide, anti-Flag precipitation)	activity of immunoprecipitated KSR to phosphorylate and activate Raf-1 [3]	phosphorylation of Raf-1 peptide by CAP kinase [4]	phosphorylation of peptide by KSR [5]
CCCCCCCCCCCCC/C=C/[C@@H](O)[C@H](CO)NC(C)=O [C2-ceramide]	40 µM	50 nM	5 to 10	significantly enhanced	dramatically enhanced	markedly enhanced		
RQRSTSTPNVHMVSTTLPVDSRMIE [wild type Raf-peptide]							phosphorylated	phosphorylated to the same extent
